Laboratory results as given in ChEMBL document CHEMBL1201862, “PubChem BioAssay data set” (2004).
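Each compound was tested at five concentrations against cells in 96-well plates for 48 hours. GI50 = concentration required for 50% inhibition of growth.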 Calls of active or inactive are those of the source. No stated cut-off is given here; in the data, active = GI50 up to about 1.1 µM and inactive = higher.

What was measured:
Experiment in all cases: growth of human tumour cells (NCI), 48 h
[1] = test system: 786-0
[2] = test system: BT-549
[3] = test system: CAKI-1
[4] = test system: DU-145
[5] = test system: HCT-116
[6] = test system: K562
[7] = test system: LOX IMVI
[8] = test system: MDA-N
[9] = test system: NCI-H23
[10] = test system: PC-3
[11] = test system: RPMI-8226
[12] = test system: SF-268
[13] = test system: SF-295
[14] = test system: SNB-19
[15] = test system: SNB-75
[16] = test system: TK-10
[17] = test system: U-251
[18] = test system: UACC-62
[19] = test system: SR

Structure (SMILES)	GI50 [1]	GI50 [2]	GI50 [3]	GI50 [4]	GI50 [5]	GI50 [6]	GI50 [7]	GI50 [8]	GI50 [9]	GI50 [10]	GI50 [11]	GI50 [12]	GI50 [13]	GI50 [14]	GI50 [15]	GI50 [16]	GI50 [17]	GI50 [18]	GI50 [19]
Cc1ccc(/N=N/c2c(O)ccc3ccccc23)c(C)c1	> 100 µM (inactive)	> 100 µM (inactive)	> 100 µM (inactive)	> 100 µM (inactive)	> 100 µM (inactive)	> 100 µM (inactive)	> 100 µM (inactive)	> 100 µM (inactive)	> 100 µM (inactive)	> 100 µM (inactive)	> 100 µM (inactive)	> 100 µM (inactive)	> 100 µM (inactive)	> 100 µM (inactive)	> 100 µM (inactive)	> 100 µM (inactive)	> 100 µM (inactive)	> 100 µM (inactive)	
COc1ccc(OC)c([N+](=O)[O-])c1-c1nc2sc(C)cn2c1/C=N/N=C(N)N	44.3 µM (inactive)	15.2 µM (inactive)	28.7 µM (inactive)	30.3 µM (inactive)	39.5 µM (inactive)	2.49 µM (inactive)	70.1 µM (inactive)		22.8 µM (inactive)	23.3 µM (inactive)	37.8 µM (inactive)	27.6 µM (inactive)	24.3 µM (inactive)			20.6 µM (inactive)	31.6 µM (inactive)	22.7 µM (inactive)	< 0.01 µM (active)
CSc1cc(Cl)c(C)cc1S(=O)(=O)NC(=O)NNc1ccc(F)c(Cl)c1	> 100 µM (inactive)		> 100 µM (inactive)	> 100 µM (inactive)	> 100 µM (inactive)	> 100 µM (inactive)	> 100 µM (inactive)	> 100 µM (inactive)		> 100 µM (inactive)		> 100 µM (inactive)	> 100 µM (inactive)	> 100 µM (inactive)	> 100 µM (inactive)		> 100 µM (inactive)		61 µM (inactive)
CN(C)c1ccc(/C(Br)=C2\OC(=O)c3ccccc32)cc1	> 100 µM (inactive)		> 100 µM (inactive)	> 100 µM (inactive)	> 100 µM (inactive)	59.6 µM (inactive)	> 100 µM (inactive)	40.1 µM (inactive)	> 100 µM (inactive)	> 100 µM (inactive)	24.3 µM (inactive)	> 100 µM (inactive)	76.2 µM (inactive)	> 100 µM (inactive)	80.7 µM (inactive)	> 100 µM (inactive)	> 100 µM (inactive)	> 100 µM (inactive)	34.8 µM (inactive)
OCCN(C1=NCCN1)/[N+](=C/c1ccc(Cl)cc1)[CH-]c1ccc(Cl)cc1	> 100 µM (inactive)	> 100 µM (inactive)	> 100 µM (inactive)		95.5 µM (inactive)	41.7 µM (inactive)	51.6 µM (inactive)	> 100 µM (inactive)	> 100 µM (inactive)	62.5 µM (inactive)		> 100 µM (inactive)	> 100 µM (inactive)	> 100 µM (inactive)	> 100 µM (inactive)	> 100 µM (inactive)	> 100 µM (inactive)	> 100 µM (inactive)	99.1 µM (inactive)
Cn1c2c(c3ccccc31)CCN(CCN1CCN(c3ccccc3)CC1)C2=O	68.2 µM (inactive)		> 100 µM (inactive)		58.1 µM (inactive)	> 100 µM (inactive)	> 100 µM (inactive)		33.5 µM (inactive)		> 100 µM (inactive)	> 100 µM (inactive)	> 100 µM (inactive)			> 100 µM (inactive)	> 100 µM (inactive)	> 100 µM (inactive)	
O=C(/C=C/c1cccc2ccccc12)c1ccccc1Cl	14 µM (inactive)		14.4 µM (inactive)		8.95 µM (inactive)	5.57 µM (inactive)			14.3 µM (inactive)		5.43 µM (inactive)	18.4 µM (inactive)		14.1 µM (inactive)	16.7 µM (inactive)	14.6 µM (inactive)	11.6 µM (inactive)	14.1 µM (inactive)	4.35 µM (inactive)
Cc1[nH]c2ccccc2c1C1=CC(=O)N(c2ccccc2)C1=O	10.8 µM (inactive)	5.31 µM (inactive)	6.22 µM (inactive)	4.74 µM (inactive)	8.75 µM (inactive)	6.37 µM (inactive)	5.55 µM (inactive)		12.1 µM (inactive)	11.9 µM (inactive)	11.3 µM (inactive)	15.8 µM (inactive)	26.7 µM (inactive)	22.1 µM (inactive)		11.1 µM (inactive)	17.3 µM (inactive)	9.82 µM (inactive)	
N#Cc1c2c(c(N3CCOCC3)n3c1nc1ccccc13)CCCC2	16.3 µM (inactive)	40.1 µM (inactive)	19.1 µM (inactive)	19 µM (inactive)	13.9 µM (inactive)	25.1 µM (inactive)	17.3 µM (inactive)	18.4 µM (inactive)	19.5 µM (inactive)	21.9 µM (inactive)		> 100 µM (inactive)	17.9 µM (inactive)	16.6 µM (inactive)		23.1 µM (inactive)	14.3 µM (inactive)	22.3 µM (inactive)	
O=C1CSc2nc3ccccc3n2/C=N\N1	> 100 µM (inactive)		> 100 µM (inactive)	> 100 µM (inactive)	> 100 µM (inactive)	> 100 µM (inactive)	> 100 µM (inactive)	> 100 µM (inactive)	> 100 µM (inactive)	> 100 µM (inactive)	> 100 µM (inactive)	> 100 µM (inactive)	> 100 µM (inactive)	> 100 µM (inactive)		> 100 µM (inactive)	> 100 µM (inactive)	> 100 µM (inactive)	> 100 µM (inactive)
CCOC(=O)NNC(=O)C1CSC(c2ccccc2)N1C(C)=O (configuration not stated)	> 100 µM (inactive)	> 100 µM (inactive)	> 100 µM (inactive)	> 100 µM (inactive)	> 100 µM (inactive)	> 100 µM (inactive)	> 100 µM (inactive)		> 100 µM (inactive)	> 100 µM (inactive)	> 100 µM (inactive)	> 100 µM (inactive)	> 100 µM (inactive)	> 100 µM (inactive)	> 100 µM (inactive)	> 100 µM (inactive)	> 100 µM (inactive)	> 100 µM (inactive)	
Brc1ccc(-c2nc(-c3ccc(Br)cc3)n(-c3ccccc3)n2)cc1	> 100 µM (inactive)	> 100 µM (inactive)	> 100 µM (inactive)	> 100 µM (inactive)	38 µM (inactive)		> 100 µM (inactive)	> 100 µM (inactive)	> 100 µM (inactive)	> 100 µM (inactive)		> 100 µM (inactive)	> 100 µM (inactive)	> 100 µM (inactive)	54.3 µM (inactive)	> 100 µM (inactive)	> 100 µM (inactive)	> 100 µM (inactive)	
CCN1CCC(O)(/C=C/c2cccc(C)c2)C(C(=O)/C=C/c2cccc(C)c2)C1 (configuration not stated)	2.26 µM (inactive)		2 µM (inactive)	3.94 µM (inactive)	2.18 µM (inactive)	2.98 µM (inactive)	2.17 µM (inactive)	2.66 µM (inactive)	2.21 µM (inactive)	13.3 µM (inactive)	1.77 µM (inactive)	1.74 µM (inactive)	2.28 µM (inactive)	4.31 µM (inactive)	2.09 µM (inactive)	1.71 µM (inactive)	1.72 µM (inactive)	1.82 µM (inactive)	3.74 µM (inactive)
Cc1ccc(NC(=O)c2cc3ccccc3c(/N=N\c3ccccc3O)c2O)c(C)c1	1.32 µM (inactive)		1.19 µM (inactive)		0.664 µM (active)	3.09 µM (inactive)				1.63 µM (inactive)	1.78 µM (inactive)	0.687 µM (active)	0.863 µM (active)	1.2 µM (inactive)	0.053 µM (active)	5.31 µM (inactive)			0.373 µM (active)
CC(C)(C)CC(C)(C)NC(=S)NO	> 100 µM (inactive)		> 100 µM (inactive)	> 100 µM (inactive)	> 100 µM (inactive)	> 100 µM (inactive)	> 100 µM (inactive)	> 100 µM (inactive)	> 100 µM (inactive)	> 100 µM (inactive)	> 100 µM (inactive)	> 100 µM (inactive)	> 100 µM (inactive)	> 100 µM (inactive)	> 100 µM (inactive)	> 100 µM (inactive)		> 100 µM (inactive)	> 100 µM (inactive)
O=C(c1cccs1)c1nccc2c1cnc1ccccc12	68.5 µM (inactive)		41.5 µM (inactive)	> 100 µM (inactive)	90.8 µM (inactive)	> 100 µM (inactive)	> 100 µM (inactive)		92.7 µM (inactive)	> 100 µM (inactive)	> 100 µM (inactive)	26.2 µM (inactive)	> 100 µM (inactive)	> 100 µM (inactive)	43.7 µM (inactive)	> 100 µM (inactive)	41.2 µM (inactive)	> 100 µM (inactive)	> 100 µM (inactive)
O=[N+]([O-])c1ccc(C2Nn3c(nnc3-c3cccc([N+](=O)[O-])c3)S2)cc1 (configuration not stated)	> 100 µM (inactive)	> 100 µM (inactive)	> 100 µM (inactive)	> 100 µM (inactive)	67.6 µM (inactive)	50 µM (inactive)	82 µM (inactive)		> 100 µM (inactive)	> 100 µM (inactive)	42.7 µM (inactive)	> 100 µM (inactive)	> 100 µM (inactive)	> 100 µM (inactive)	> 100 µM (inactive)	> 100 µM (inactive)	> 100 µM (inactive)	> 100 µM (inactive)	84.1 µM (inactive)
